Measurements reported in patent US20240390335A1, “PHARMACEUTICAL COMPOSITION CONTAINING BETA-LACTAM COMPOUND AND USE THEREOF” (priority 2021, published 2024).
≈ marks a conversion by molar mass, not a printed value.

How the values were obtained:
[1] = test system: Klebsiella pneumoniae; assay: Combined in vitro use, checkerboard dilution method; format: cell-based
Method: (§1) Mueller-Hinton broth (MH broth) medium, Trypticase Soy Broth (TSB Broth) medium, purchased from BD Difco, Cockeysville, MD, USA; • 96-well plate: Corning Costar, Cambridge, MA, USA; • Test method: the checkerboard dilution method was used for determination.
(§2) (1) Preparation of the test samples: 4 mg of each sample was taken and was prepared into a test solution at 2,048 μg/mL with MH broth, and the test solution was diluted two-fold in a 96-well plate to prepare solutions of a series of gradient concentrations.
(§3) (2) Preparation of a bacteria solution: The test strains were amplified by Trypticase Soy Broth (TSB Broth) according to the CLSI/NCCLS standard.
(§4) (3) Addition of the samples: 10 μL of the bacteria solution with a concentration of 6×10^5 CFU/mL was pipetted into each well of the 96-well plate. Each well contained the antibacterial drugs (the compound of formula (I-1) and the compound of formula (I-2)) diluted two-fold with broth and the aforementioned lactamase inhibitor or efflux pump inhibitor. […] The samples were mixed thoroughly. Three parallel experiments were set up for each concentration and the results were averaged. To the negative control group, 10 μL of the bacterial solution and 90 μL MH broth were added.
(§5) (4) Incubation: the 96-well plate was placed in a 37° C. constant-temperature incubator for 18 hours, and the growth of the strains was observed.
(§6) (5) Calculation: The in vitro effect of each drug-inhibitor combination was analyzed by calculating the FICI value: FICI=(MIC of drug A in the combination/MIC of drug A alone)+ (MIC of drug B in the combination/MIC of drug B alone).
(§7) In order to ensure the reliability of the data, three repeated tests were conducted on different dates and the results were averaged.

[2] = test system: Enterobacter cloacae; assay: as above; format: cell-based; conditions: compound of formula (I-1) combined with avibactam; Enterobacter cloacae ATCC 2468
Method: as §1, §2, §3, §4, §5, §6, §7

[3] = test system: Escherichia coli; assay: as above; format: cell-based; conditions: compound of formula (I-1) combined with avibactam
Method: as §1, §2, §3, §4, §5, §6, §7

[4] = test system: drug-resistant Enterobacteriaceae; assay: MIC assay of individual compounds, summary over Enterobacteriaceae strains; format: cell-based; conditions: against the aforementioned Enterobacteriaceae
Method: (§8) Mueller-Hinton broth (MH broth) medium, Trypticase Soy Broth (TSB Broth) medium, purchased from BD Difco, Cockeysville, MD, USA; • 96-well plate: Corning Costar, Cambridge, MA, USA; • Test method: the antibacterial activities were tested by the microdilution method according to the CLSI/NCCLS standard.
(§9) (1) Preparation of the test samples: 4 mg of each sample was taken, and was prepared into a test solution at 1,024 μg/mL with MH broth, and the test solution was diluted two-fold in a 96-well plate to prepare solutions of a series of gradient concentrations, the volume in each well being 90 μL.
as §3
(§10) (3) Addition of the samples: a bacteria solution with a concentration of 6×10^5 cfu/mL was prepared, and 10 μL of the bacteria solution was pipetted into each well of the 96-well plate. Three parallel experiments were set up for each concentration and the results were averaged. To the negative control group, 10 μL of the bacterial solution and 90 μL MH broth were added.
(§11) (4) Incubation: the 96-well plate was placed in a 37° C. constant-temperature incubator for 18 hours, and the growth of the strains was observed. The drug concentration in the well with no microbial growth was recorded as the MIC.

[5] = test system: Klebsiella pneumoniae; assay: MIC assay of individual compounds (microdilution, CLSI/NCCLS); format: cell-based; conditions: individual compound
Method: as §8, §9, §3, §10, §11

[6] = test system: Enterobacter cloacae; assay: as above; format: cell-based; conditions: individual compound
Method: as §8, §9, §3, §10, §11

[7] = test system: Escherichia coli; assay: as above; format: cell-based; conditions: individual compound
Method: as §8, §9, §3, §10, §11

[8] = test system: Klebsiella pneumoniae ATCC BAA2146 (NDM-1); conditions: avibactam itself; stated as well known to those skilled in the art; cited from earlier work
[9] = Escherichia coli CCPM(A)-P-071301

Compound: NC(=O)[C@@H]1CC[C@@H]2CN1C(=O)N2OS(=O)(=O)O [Avibactam, avibactam]
- MIC in combination ([1]; compound of formula (I-1) combined with avibactam, Klebsiella pneumoniae ATCC 2146): 2 µg/mL
- MIC in combination ([1]; compound of formula (I-1) combined with avibactam, Klebsiella pneumoniae ATCC 700603): 0.5 µg/mL
- MIC in combination ([1]; compound of formula (I-1) combined with avibactam, Klebsiella pneumoniae CCPM(A)-0814R18): 0.5 µg/mL
- MIC in combination ([1]; compound of formula (I-1) combined with avibactam, Klebsiella pneumoniae CCPM(A)-0814R33): 2 µg/mL
- MIC in combination ([1]; compound of formula (I-1) combined with avibactam, Klebsiella pneumoniae CCPM(A)-0817R61): 0.5 µg/mL
- MIC in combination ([1]; compound of formula (I-1) combined with avibactam, Klebsiella pneumoniae CCPM(A)-081705): 8 µg/mL
- MIC in combination ([1]; compound of formula (I-1) combined with avibactam, Klebsiella pneumoniae CCPM(A)-081715): 0.5 µg/mL
- MIC in combination ([1]; compound of formula (I-1) combined with avibactam, Klebsiella pneumoniae CCPM(A)-081716): 8 µg/mL
- MIC in combination ([1]; compound of formula (I-1) combined with avibactam, Klebsiella pneumoniae CCPM(A)-081729): 8 µg/mL
- MIC in combination ([1]; compound of formula (I-2) combined with avibactam, Klebsiella pneumoniae ATCC 2146): 0.5 µg/mL
- MIC in combination ([1]; compound of formula (I-2) combined with avibactam, Klebsiella pneumoniae ATCC 700603): 0.5 µg/mL
- MIC in combination ([1]; compound of formula (I-2) combined with avibactam, Klebsiella pneumoniae CCPM(A)-081715): 4 µg/mL
- MIC in combination ([1]; compound of formula (I-2) combined with avibactam, Klebsiella pneumoniae CCPM(A)-081729): 4 µg/mL
- MIC in combination [2]: 4 µg/mL
- MIC in combination ([3]; Escherichia coli ATCC 2469): 1 µg/mL
- MIC in combination [3, 9]: 1 µg/mL
- activity of the inhibitor itself [4]: relatively weak activities
- MIC ([5]; Klebsiella pneumoniae ATCC 2146): 8 µg/mL (≈ 30.2 µM)
- MIC ([5]; Klebsiella pneumoniae ATCC 700603): 16 µg/mL (≈ 60.3 µM)
- MIC ([5]; Klebsiella pneumoniae CCPM(A)-0814R18): 16 µg/mL (≈ 60.3 µM)
- MIC ([5]; Klebsiella pneumoniae CCPM(A)-0814R33): 16 µg/mL (≈ 60.3 µM)
- MIC ([5]; Klebsiella pneumoniae CCPM(A)-0817R61): 32 µg/mL (≈ 121 µM)
- MIC ([5]; Klebsiella pneumoniae CCPM(A)-081301): 32 µg/mL (≈ 121 µM)
- MIC ([5]; Klebsiella pneumoniae CCPM(A)-081705): 16 µg/mL (≈ 60.3 µM)
- MIC ([5]; Klebsiella pneumoniae CCPM(A)-081715): 32 µg/mL (≈ 121 µM)
- MIC ([5]; Klebsiella pneumoniae CCPM(A)-081716): 16 µg/mL (≈ 60.3 µM)
- MIC ([5]; Klebsiella pneumoniae CCPM(A)-081729): 32 µg/mL (≈ 121 µM)
- MIC ([6]; Enterobacter cloacae ATCC 2468): 32 µg/mL (≈ 121 µM)
- MIC ([6]; Enterobacter cloacae CCPM(A)-P-111719): 32 µg/mL (≈ 121 µM)
- MIC ([7]; Escherichia coli ATCC 2469): 16 µg/mL (≈ 60.3 µM)
- MIC [7, 9]: 16 µg/mL (≈ 60.3 µM)
- in vivo antibacterial effect on the test strain [8]: no in vivo antibacterial effect
